Assays:
gastric mucosa = experiment: gastric mucosal injury induced by ethanol (action of protecting gastric mucosa); type: in vivo, Male Sprague-Dawley rats; conditions: Rattus norvegicus, po; 6 rats per group; doses 3, 10 and 30 mg/kg; 30 min before 1 ml of 100% ethanol; read-out: Action of protecting gastric mucosa ID50
Procedure: As a method of determining the ability to protect gastric mucosa, gastric mocosal injury induced by ethanol [Robert A., Gastroenterology 77, 761 (1979)] is often used. This method was applied to evaluation of the compounds of this invention. Male Sprague-Dawley rats 7-weeks old were fasted for 24 hours. These animals were administered test compounds into the stomach by using a gastric tube. After 30 minutes, 1 ml of 100% ethanol was administered orally. The animals were killed by carbon dioxide gas 60 minutes after ethanol administration. The stomach was removed together with the lower part of esophagus and the duodenum. The esophagus was clipped, 10 ml of 1% formalin solution was instilled into the stomach from the duodenum, and then the duodenum was clipped. The whole stomach was immersed in 1% formalin solution. About 15 minutes later, the stomachs were opened along the greater curvature. Length of the lesions which occurred in the gastric corpus mucosa was measured under a dissecting microscope with a square-grid eye piece (×10). The sum total length of the individual lesions in each animal was measured, and the average value per group was calculated. Based on the difference between the average value of each group and that of the control group, the inhibition rate was determined. The test compound was suspended in a 5% gum arabic solution, and administered in a volume of 2 ml/kg. | administered in a dose of 3, 10 and 30 mg/kg to determine ID50.

oral toxicity in mice = type: in vivo; conditions: oral administration, 500 mg/kg

For COc1ccnc(C[S+]([O-])c2nc3cc(C(F)(F)F)ccc3[nH]2)c1C (stereo not shown) [5-CF3, CH3, CH3, H, reference compound], the ED50 (gastric mucosa) was 24 mg/kg.

COc1ccc2[nH]c([S+]([O-])Cc3ncc(C)c(OC)c3C)nc2c1 (stereo not shown) [5-OCH3, CH3, CH3, CH3, reference compound] showed an ED50 (gastric mucosa) of 22 mg/kg.

In the case of COc1ccnc(C[S+]([O-])c2nc3ccc(C(F)(F)F)cc3[nH]2)c1OC (stereo not shown) [Example 9, 2-[(3,4-dimethoxypyrid-2-yl)methylsulfinyl]-5-trifluoromethylbenzimidazole], the ED50 (gastric mucosa) is reported as 3 mg/kg.

For COc1ccnc(C[S+]([O-])c2nc3ccccc3[nH]2)c1OC (stereo not shown) [Example 6, 2-[(3,4-dimethoxypyrid-2-yl)methylsulfinyl]benzimidazole], the ED50 (gastric mucosa) was 3.2 mg/kg and the fatal effect (oral toxicity in mice) was “no fatal effect”.

For COc1c(OCC(F)(F)F)ccnc1C[S+]([O-])c1nc2ccccc2[nH]1 (stereo not shown) [Example 18, 2-[[3-methoxy-4-(2,2,2-trifluoroethoxy)pyrid-2-yl]methylsulfinyl]benzimidazole], the ED50 (gastric mucosa) was 6.2 mg/kg and the fatal effect (oral toxicity in mice) was “no fatal effect”.
